According to patent publication US20260201347A1, “ARTIFICIAL BIFUNCTIONAL ENZYME COMPRISING A MYELOPEROXIDASE ACTIVITY AND A GLUCOSE OXIDASE ACTIVITY AND APPLICATIONS THEREOF” (UNIVERSITÉ DE BORDEAUX, priority 2022, published 2026):
Values joined by “and” are separate entries in the source; they are usually repeats but may differ in a detail not shown here. Equal values may be shown once. Read-outs that look alike come from different tables or passages of the source.

Columns and labels:
[1] = target: RbMPO-GGGGGGGG-GOx chimera (Rhodopirellula baltica myeloperoxidase, SEQ ID NO: 10; linker SEQ ID NO: 9; Penicillium amagasakiens glucose oxidase, SEQ ID NO: 12) (Penicillium amagasakiense, UniProt P81156); details: 20 mM NaCl, pH7.5; for Km: read-out: KM H2O2; for Ki: read-out: Ki H2O2, substrate inhibition
Experimental: (§1) The fluorescent probe aminophenyl fluorescein (APF) (λexcitation=485 nm and λemission=525 nm) was used to measure the HOCl production by the chimera, as a measure of its chlorination activity. Three tests were performed: (1) at different glucose concentrations (0, 1, 2, 3, 4, 5, 6, 8, 10, 15, 20 mM) with fixed concentrations of chimera (1 μM) and NaCl (20 mM); (2) at different NaCl concentrations (0, 10, 20, 50, 100, 250, 500, 750 μM and 1 mM) with fixed concentrations of chimera (1 μM) and glucose (20 mM); (3) at different H2O2 concentrations (0, 0.01, 0.02, 0.05, 0.079, 0.1, 0.25, 0.5, 0.75, 1, 2, 4, 6, 8, 10, 20, 40, 60, 80, 100, 200, 500 mM) with fixed concentrations of chimera (1 μM) and NaCl (20 mM). For all experiments, 10 μM APF was used in each assay with 50 mM NaPi buffer pH7.5 QSP 20 μL (384-well plate). Each experiment was performed in triplicate. A 10-30 min. kinetic was performed for each range value and the increase rate of fluorescence intensity was compared to the standard fluorescein range. The measured fluorescence per second was thus proportional to the amount of fluorescein, which in turn was proportional to the amount of HOCl produced by the chimeras.
(§2) Steady-state kinetic parameters were determined by adjustment of experimental data to the following equations depending on the appearance of saturation curves: […]
(§3) In order to determine the RbMPO activity of the chimeras, a H2O2 concentration range was performed at a fixed concentration of NaCl. HOCl reacted with APF probe and apparition of fluorescein was monitored.

[2] = target: T1, RbMPO-GOx chimera, no linker (Rhodopirellula baltica myeloperoxidase, SEQ ID NO: 10, fused to Penicillium amagasakiens glucose oxidase, SEQ ID NO: 12) (Penicillium amagasakiense, UniProt P81156); details: monomer, 20 mM NaCl, pH7.5
Experimental: as §1, §2, §3

[3] = target: T2, RbMPO-LEGGEAEA-GOx chimera (Rhodopirellula baltica myeloperoxidase, SEQ ID NO: 10; linker SEQ ID NO: 4; Penicillium amagasakiens glucose oxidase, SEQ ID NO: 12) (Penicillium amagasakiense, UniProt P81156)
Experimental: as §1, §2, §3

[4] = target: RbMPO-LEKREAEA-GOx chimera (Rhodopirellula baltica myeloperoxidase, SEQ ID NO: 10; linker SEQ ID NO: 7; Penicillium amagasakiens glucose oxidase, SEQ ID NO: 12) (Penicillium amagasakiense, UniProt P81156); details: trimer, 20 mM NaCl, pH7.5
Experimental: as §1, §2, §3

[5] = target: RbMPO-LEKRPEAEA-GOx chimera (Rhodopirellula baltica myeloperoxidase, SEQ ID NO: 10); linker SEQ ID NO: 8; Penicillium amagasakiens glucose oxidase, SEQ ID NO: 12 (Penicillium amagasakiense, UniProt P81156); details: 20 mM NaCl, pH7.5; for Km: read-out: KM H2O2; for Ki: read-out: Ki H2O2, substrate inhibition
Experimental: as §1, §2, §3

[6] = system: RbMPO-LGKRGAGA-GOx chimera (Rhodopirellula baltica myeloperoxidase, SEQ ID NO: 10; linker SEQ ID NO: 5; Penicillium amagasakiens glucose oxidase, SEQ ID NO: 12); details: result in words
Experimental: as §1, §2

[7] = target: RbMPO-LEKREAEALEKREAEA-GOx chimera (Rhodopirellula baltica myeloperoxidase, SEQ ID NO: 10); linker SEQ ID NO: 6; Penicillium amagasakiens glucose oxidase, SEQ ID (Penicillium amagasakiense, UniProt P81156); details: 20 mM NaCl, pH7.5; for Km: read-out: KM H2O2; for Ki: read-out: Ki H2O2, substrate inhibition
Target sequence in this assay (P81156 with tags, fused parts or gaps): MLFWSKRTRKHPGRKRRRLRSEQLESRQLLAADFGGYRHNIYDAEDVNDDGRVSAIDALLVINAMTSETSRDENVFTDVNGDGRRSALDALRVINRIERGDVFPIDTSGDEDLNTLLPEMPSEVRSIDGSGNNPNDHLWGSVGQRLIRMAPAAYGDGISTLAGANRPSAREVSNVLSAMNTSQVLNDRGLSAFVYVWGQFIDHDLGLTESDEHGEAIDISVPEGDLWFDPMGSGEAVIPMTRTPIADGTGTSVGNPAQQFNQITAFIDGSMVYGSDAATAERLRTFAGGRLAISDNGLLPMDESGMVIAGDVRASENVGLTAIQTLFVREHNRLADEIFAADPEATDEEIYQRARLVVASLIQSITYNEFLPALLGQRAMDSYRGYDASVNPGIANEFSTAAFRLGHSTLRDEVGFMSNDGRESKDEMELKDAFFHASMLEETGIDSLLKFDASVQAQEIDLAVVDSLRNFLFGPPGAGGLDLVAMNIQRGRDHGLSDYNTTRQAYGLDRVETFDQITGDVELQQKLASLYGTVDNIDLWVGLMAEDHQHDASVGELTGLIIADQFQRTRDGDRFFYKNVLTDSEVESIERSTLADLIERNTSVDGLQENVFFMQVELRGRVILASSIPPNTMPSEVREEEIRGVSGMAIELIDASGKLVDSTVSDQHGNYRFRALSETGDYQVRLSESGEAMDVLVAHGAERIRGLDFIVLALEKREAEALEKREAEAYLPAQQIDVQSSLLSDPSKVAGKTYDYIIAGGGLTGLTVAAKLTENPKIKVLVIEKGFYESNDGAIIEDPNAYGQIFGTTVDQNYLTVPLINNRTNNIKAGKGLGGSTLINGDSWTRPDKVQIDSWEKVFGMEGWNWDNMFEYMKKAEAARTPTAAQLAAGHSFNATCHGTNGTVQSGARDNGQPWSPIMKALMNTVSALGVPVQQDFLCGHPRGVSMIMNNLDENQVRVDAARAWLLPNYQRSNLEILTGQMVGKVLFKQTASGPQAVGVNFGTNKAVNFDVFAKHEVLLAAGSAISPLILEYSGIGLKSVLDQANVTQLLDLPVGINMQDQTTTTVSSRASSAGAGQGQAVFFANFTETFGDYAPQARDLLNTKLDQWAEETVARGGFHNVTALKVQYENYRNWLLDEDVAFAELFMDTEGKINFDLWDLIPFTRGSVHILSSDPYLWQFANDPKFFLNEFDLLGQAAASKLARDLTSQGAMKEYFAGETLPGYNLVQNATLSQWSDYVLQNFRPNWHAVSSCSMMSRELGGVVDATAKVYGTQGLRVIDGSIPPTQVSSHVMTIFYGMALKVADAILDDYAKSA
Experimental: The fluorescent probe aminophenyl fluorescein (APF) (λexcitation=485 nm and λemission=525 nm) was used to measure the HOCl production by the chimera, as a measure of its chlorination activity. […] For all experiments, 10 μM APF was used in each assay with 50 mM NaPi buffer pH7.5 QSP 20 μL (384-well plate). Each experiment was performed in triplicate. A 10-30 min. kinetic was performed for each range value and the increase rate of fluorescence intensity was compared to the standard fluorescein range. The measured fluorescence per second was thus proportional to the amount of fluorescein, which in turn was proportional to the amount of HOCl produced by the chimeras.

[8] = target: T3, RbMPO-LEKREAEALEKREAEA-GOx chimera (Rhodopirellula baltica myeloperoxidase, SEQ ID NO: 10); linker SEQ ID NO: 6; Penicillium amagasakiens glucose oxidase, SEQ ID (Penicillium amagasakiense, UniProt P81156); assay: Coupled active sites, HOCl production from glucose, APF assay (Table 9), linker LEKREAEALEKREAEA; assay type: biochemical; details: dimer/monomer; fixed NaCl 20 mM, pH7.5
T3 construct: 6His (in the pET21a vector behind the XhoI site); made in house; host or cells: E. coli BL21Star (DE3)
Experimental: (§4) Each experiment was performed in triplicate.
(§5) The activity of the two active sites was then assessed in conjunction to each other (FIG. 1).
(§6) Briefly, the aim was to measure the production of HOCl from glucose and NaCl as respective substrates of the enzymes, using the APF probe. Two types of kinetics were performed: • i) kinetics at various concentrations of glucose and a fixed concentration of NaCl, and • ii) kinetics at various concentration of NaCl and a fixed concentration of glucose.

[9] = target: T4, RbMPO-LGKRGAGA-GOx chimera (Rhodopirellula baltica myeloperoxidase, SEQ ID NO: 10; linker SEQ ID NO: 5; Penicillium amagasakiens glucose oxidase, SEQ ID NO: 12) (Penicillium amagasakiense, UniProt P81156); assay: Coupled active sites, HOCl production from glucose, APF assay (Table 9), linker LGKRGAGA; assay type: biochemical; details: trimer; fixed NaCl 20 mM, pH7.5
T4 construct: 6His (in the pET21a vector behind the XhoI site); made in house; host or cells: E. coli BL21Star (DE3)
Experimental: as §4, §5, §6

[10] = target: T1, RbMPO-GOx chimera, no linker (Rhodopirellula baltica myeloperoxidase, SEQ ID NO: 10, fused to Penicillium amagasakiens glucose oxidase, SEQ ID NO: 12); assay: Coupled active sites, HOCl production from glucose, APF assay (Table 9), chimera without linker; assay type: biochemical; set-up: heme and FAD reconstituted; monomer; GOx mature part (P81156 19-605); details: monomer; fixed NaCl 20 mM, pH7.5
Experimental: as §4, §5, §6
Target sequence in this assay (P81156 19-605, change not shown): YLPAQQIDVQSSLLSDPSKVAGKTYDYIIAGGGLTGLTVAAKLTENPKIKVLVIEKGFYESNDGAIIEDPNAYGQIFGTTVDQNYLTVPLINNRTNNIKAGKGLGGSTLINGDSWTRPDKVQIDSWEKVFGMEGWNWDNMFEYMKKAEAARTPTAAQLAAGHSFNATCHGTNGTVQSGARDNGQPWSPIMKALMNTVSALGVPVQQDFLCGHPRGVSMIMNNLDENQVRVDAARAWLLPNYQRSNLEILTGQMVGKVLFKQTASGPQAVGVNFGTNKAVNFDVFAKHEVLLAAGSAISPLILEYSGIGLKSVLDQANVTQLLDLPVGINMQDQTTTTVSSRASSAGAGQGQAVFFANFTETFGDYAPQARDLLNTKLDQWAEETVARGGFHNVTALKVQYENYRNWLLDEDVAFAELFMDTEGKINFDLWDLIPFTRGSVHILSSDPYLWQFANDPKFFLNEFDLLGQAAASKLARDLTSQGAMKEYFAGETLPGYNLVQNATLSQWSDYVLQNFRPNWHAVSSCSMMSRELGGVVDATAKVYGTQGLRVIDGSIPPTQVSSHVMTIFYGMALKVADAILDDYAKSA

[11] = target: T2, RbMPO-LEGGEAEA-GOx chimera (Rhodopirellula baltica myeloperoxidase, SEQ ID NO: 10; linker SEQ ID NO: 4; Penicillium amagasakiens glucose oxidase, SEQ ID NO: 12); assay: Coupled active sites, HOCl production from glucose, APF assay (Table 9), linker LEGGEAEA; assay type: biochemical; set-up: 6His (in the pET21a vector behind the XhoI site); made in house; host or cells: E. coli BL21Star (DE3)
Experimental: as §4, §5, §6

[12] = target: T2, RbMPO-LEGGEAEA-GOx chimera (Rhodopirellula baltica myeloperoxidase, SEQ ID NO: 10; linker SEQ ID NO: 4; Penicillium amagasakiens glucose oxidase, SEQ ID NO: 12); details: monomer 1, NaSCN as a substrate, 50 mM glucose, pH6, 37° C.
Experimental: Initial rate measurements under steady state conditions were made with a BioLogic SFM400 stopped-flow by using a single-mixing mode and Xe/Hg lamp and a TC100/10 cell. One syringe was filled with the chimera and another one with glucose and NaSCN. The concentrations of the chimera and glucose were fixed (300 nM and 50 mM, respectively), and measurement was carried out at 37° C. and at 240 nm. The appearance of −OSCN (hypothiocyanate) was measured at 240 nm at 37° C. in a 50 mM pH6 sodium phosphate buffer. At least five shots of 120 s were performed for each value of the NaSCN substrate range with the following sample period: 20 μs, 20 ms, 20 ms with 2000 points per period. Slopes were calculated from shots average for each concentration and kss (s^−1) were determined using slopes with the following formula:
The molar extinction coefficient of −OSCN is ε−OSCN=[…]. Collecting data were analysed with Origin software and kss values were fitted with Michaëlis-Menten equation.

[13] = read-out: Ki H2O2, substrate inhibition
[14] = mixture of oligomers, 15 mM glucose and 500 mM NaCl

Sequence of RbMPO-LEKRPEAEA-GOx chimera (Rhodopirellula baltica myeloperoxidase, SEQ ID NO: 10); linker SEQ ID NO: 8; Penicillium amagasakiens glucose oxidase, SEQ ID NO: 12 (P81156 with tags, fused parts or gaps): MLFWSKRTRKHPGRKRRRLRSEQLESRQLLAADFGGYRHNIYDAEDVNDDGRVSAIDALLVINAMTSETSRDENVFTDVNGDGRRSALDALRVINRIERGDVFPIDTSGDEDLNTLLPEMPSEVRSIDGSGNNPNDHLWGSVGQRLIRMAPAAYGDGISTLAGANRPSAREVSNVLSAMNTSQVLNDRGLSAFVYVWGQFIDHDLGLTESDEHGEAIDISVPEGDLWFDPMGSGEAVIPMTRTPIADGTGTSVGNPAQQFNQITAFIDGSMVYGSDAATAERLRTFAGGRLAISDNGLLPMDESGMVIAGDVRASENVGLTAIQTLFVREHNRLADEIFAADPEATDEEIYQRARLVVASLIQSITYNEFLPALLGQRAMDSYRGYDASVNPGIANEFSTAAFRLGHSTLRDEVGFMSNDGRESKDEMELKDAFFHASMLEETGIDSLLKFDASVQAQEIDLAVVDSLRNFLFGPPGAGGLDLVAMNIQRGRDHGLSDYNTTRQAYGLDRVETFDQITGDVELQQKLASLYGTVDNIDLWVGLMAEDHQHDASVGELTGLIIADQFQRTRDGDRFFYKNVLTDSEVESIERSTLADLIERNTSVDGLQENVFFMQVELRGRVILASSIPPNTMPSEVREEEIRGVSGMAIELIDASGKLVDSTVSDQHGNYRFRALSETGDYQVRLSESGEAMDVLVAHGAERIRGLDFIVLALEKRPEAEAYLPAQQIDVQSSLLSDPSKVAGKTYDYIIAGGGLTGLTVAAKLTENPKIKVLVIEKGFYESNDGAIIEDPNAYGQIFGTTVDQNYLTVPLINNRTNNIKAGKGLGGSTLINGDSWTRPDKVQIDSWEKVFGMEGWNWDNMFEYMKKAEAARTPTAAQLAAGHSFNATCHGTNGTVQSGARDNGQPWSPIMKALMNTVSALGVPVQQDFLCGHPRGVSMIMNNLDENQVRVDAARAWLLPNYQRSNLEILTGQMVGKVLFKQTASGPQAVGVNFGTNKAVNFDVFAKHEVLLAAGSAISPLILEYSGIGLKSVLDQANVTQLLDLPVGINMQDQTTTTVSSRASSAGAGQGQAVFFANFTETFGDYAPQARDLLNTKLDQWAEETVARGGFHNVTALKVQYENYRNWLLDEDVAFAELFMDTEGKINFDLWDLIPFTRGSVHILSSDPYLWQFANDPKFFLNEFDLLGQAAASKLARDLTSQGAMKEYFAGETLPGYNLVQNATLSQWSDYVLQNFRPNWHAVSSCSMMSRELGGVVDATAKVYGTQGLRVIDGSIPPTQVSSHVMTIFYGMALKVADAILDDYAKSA
T2 sequence (P81156 with tags, fused parts or gaps): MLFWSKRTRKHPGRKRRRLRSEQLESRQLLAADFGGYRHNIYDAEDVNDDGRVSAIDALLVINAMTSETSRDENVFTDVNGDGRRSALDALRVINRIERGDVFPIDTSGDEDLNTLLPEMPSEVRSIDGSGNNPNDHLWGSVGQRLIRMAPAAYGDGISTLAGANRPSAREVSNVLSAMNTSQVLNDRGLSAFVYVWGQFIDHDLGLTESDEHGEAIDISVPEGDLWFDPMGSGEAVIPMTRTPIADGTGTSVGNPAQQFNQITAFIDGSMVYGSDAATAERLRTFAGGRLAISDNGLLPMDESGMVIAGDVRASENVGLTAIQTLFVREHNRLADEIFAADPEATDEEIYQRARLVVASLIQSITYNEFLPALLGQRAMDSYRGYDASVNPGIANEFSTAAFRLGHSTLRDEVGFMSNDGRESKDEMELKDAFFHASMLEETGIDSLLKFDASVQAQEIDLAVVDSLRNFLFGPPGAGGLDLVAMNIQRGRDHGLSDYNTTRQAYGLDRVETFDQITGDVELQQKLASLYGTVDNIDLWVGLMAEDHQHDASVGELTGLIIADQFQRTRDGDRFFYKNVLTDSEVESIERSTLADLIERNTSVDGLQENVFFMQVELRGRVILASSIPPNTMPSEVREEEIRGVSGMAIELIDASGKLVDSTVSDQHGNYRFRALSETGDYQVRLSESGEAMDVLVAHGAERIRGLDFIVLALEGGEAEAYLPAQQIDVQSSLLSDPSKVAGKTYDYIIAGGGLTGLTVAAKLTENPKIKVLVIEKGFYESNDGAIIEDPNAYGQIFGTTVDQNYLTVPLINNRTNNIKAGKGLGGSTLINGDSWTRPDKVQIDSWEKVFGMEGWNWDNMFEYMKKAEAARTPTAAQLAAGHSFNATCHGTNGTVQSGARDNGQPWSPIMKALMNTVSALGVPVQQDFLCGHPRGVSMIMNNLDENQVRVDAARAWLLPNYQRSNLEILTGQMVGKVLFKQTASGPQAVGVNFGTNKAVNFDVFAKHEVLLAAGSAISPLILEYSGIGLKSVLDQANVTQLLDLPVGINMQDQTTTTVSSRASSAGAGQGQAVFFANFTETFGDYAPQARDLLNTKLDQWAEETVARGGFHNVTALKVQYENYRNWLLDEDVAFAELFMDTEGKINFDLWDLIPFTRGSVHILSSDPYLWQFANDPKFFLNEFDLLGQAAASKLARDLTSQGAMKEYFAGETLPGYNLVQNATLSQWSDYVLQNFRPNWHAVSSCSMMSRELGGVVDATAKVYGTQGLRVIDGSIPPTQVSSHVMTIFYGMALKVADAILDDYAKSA

OO [H2O2, hydrogen peroxide]
kcat ([1]; dimer/monomer): 0.00418 s⁻¹ | kcat/KM ([1]; dimer/monomer): 363.5 ± 382.3 M⁻¹ s⁻¹ | kcat ([1]; excluded): 0.0001682 s⁻¹ | kcat/KM ([1]; excluded): 1 ± 0.6 M⁻¹ s⁻¹ and 0.998 ± 0.603 M⁻¹ s⁻¹ | kcat ([1]; monomer): 0.0001798 s⁻¹ | kcat/KM ([1]; monomer): 38.3 ± 23.6 M⁻¹ s⁻¹ | Km ([1]; dimer/monomer): 11.5 µM | Km ([1]; excluded): 168 ± 81 µM | Km ([1]; monomer): 4.7 µM | Km ([1]; trimer): 2.86 µM | Ki ([1]; dimer/monomer): 0.0329 mM | Ki ([1]; monomer): 13.1 ± 4.9 mM | Ki ([1]; trimer): 5.92 ± 3.22 mM | kcat ([1]; trimer): 0.0005086 s⁻¹ | kcat/KM ([1]; trimer): 177.8 ± 133.1 M⁻¹ s⁻¹ | kcat [2]: 0.0012 s⁻¹ | kcat/KM [2]: 4.44 ± 3.15 M⁻¹ s⁻¹ | Km ([2]; read-out: KM H2O2): 270 ± 140 µM | Ki [2, 13]: 1.91 ± 0.48 mM | kcat ([3]; monomer 1, 20 mM NaCl, pH7.5): 0.0003086 s⁻¹ | kcat/KM ([3]; monomer 1, 20 mM NaCl, pH7.5): 34.2 ± 19.4 M⁻¹ s⁻¹ | Km ([3]; read-out: KM H2O2, monomer 1, 20 mM NaCl, pH7.5): 9.02 µM | Ki ([3]; read-out: Ki H2O2, monomer 1, 20 mM NaCl, pH7.5, substrate inhibition): 34.9 ± 12.6 mM | inhibition by H2O2 ([3]; result in words): weak inhibition | Km ([4]; read-out: KM H2O2): 45 ± 15 µM | Ki [4, 13]: 2.12 ± 1.7 mM | kcat [4]: 0.000587 s⁻¹ | kcat/KM [4]: 13.04 ± 6.51 M⁻¹ s⁻¹ | kcat ([5]; dimer/monomer): 0.000576 s⁻¹ | kcat/KM ([5]; dimer/monomer): 16.08 ± 17.15 M⁻¹ s⁻¹ | kcat ([5]; excluded): 0.0001553 s⁻¹ | kcat/KM ([5]; excluded): 6.82 ± 4.27 M⁻¹ s⁻¹ | Km ([5]; dimer/monomer): 36 ± 25 µM | Km ([5]; excluded): 23 ± 11 µM | Km ([5]; trimer): 704 ± 448 µM | Ki ([5]; dimer/monomer): 6.3 ± 3.33 mM | Ki ([5]; excluded): 17.3 ± 10.6 mM | Ki ([5]; trimer): 35.9 ± 22.2 mM | kcat ([5]; trimer): 0.0003 s⁻¹ | kcat/KM ([5]; trimer): 0.426 ± 0.365 M⁻¹ s⁻¹ | inhibition by H2O2 [6]: weak inhibition | kcat ([7]; dimer/monomer): 0.00374 s⁻¹ | kcat/KM ([7]; dimer/monomer): 1508 ± 19.4 M⁻¹ s⁻¹ and 1508 ± 107 M⁻¹ s⁻¹ | kss/[H2O2] ([7]; excluded): 0.0051 ± 0.00035 M⁻¹ s⁻¹ | Km ([7]; dimer/monomer): 2.48 µM | Km ([7]; trimer): 13 ± 1 µM | Ki ([7]; dimer/monomer): 4.63 ± 1.05 mM | Ki ([7]; trimer): 0.597 ± 0.211 mM | kcat ([7]; trimer): 0.0047 s⁻¹ | kcat/KM ([7]; trimer): 361.5 ± 64.5 M⁻¹ s⁻¹

OC[C@H]1OC(O)[C@H](O)[C@@H](O)[C@@H]1O (stereo partly drawn) [glucose]
kcat/KM glucose [8]: 2.47 ± 1.58 M⁻¹ s⁻¹ | kcat/KM glucose [9]: 1.1 ± 0.8 M⁻¹ s⁻¹ | Km [10]: 3020 ± 770 µM | kcat [10]: 3.09e-05 s⁻¹ | kss [11, 14]: around 10^−3 s^−1 | kss/[Glucose] [11, 14]: 10^−3 M^−1·s^−1 | kcat/KM glucose ([11]; monomer 2, fixed NaCl 20 mM, pH7.5): 2.73 ± 1.5 M⁻¹ s⁻¹

N#CS [SCN, thiocyanate]
kcat [12]: 0.31 s⁻¹ | kcat/KM [12]: 1409 M⁻¹ s⁻¹ | Km ([12]; read-out: KM SCN): 220 µM
